Laboratory results taken from patent US20250135016A1, “MOLECULAR LOGIC GATES FOR CONTROLLED MATERIAL DEGRADATION” (University of Washington, priority 2016, published 2025).
Values joined by “and” are separate entries in the source; they are usually repeats but may differ in a detail not shown here. Equal entries are not always repeated. Where two headings read alike, the source gives them in different places. Each block holds one substance with its values, some of them ahead of it.

How the values were obtained:
[1] = Description: Azide functionalized glass slides were synthesized as reported in previous works. […] PEG3500-diazide (37.5 μL, 40 mM) was then added, and the resulting solution was rapidly mixed, centrifuged, and then pipetted (25 μL) onto the azide functionalized glass slide. The gels were allowed to gel to completion for 1 hr, then covered with a RainX treated glass slide, and PBS (1×) was added to swell and rinse the gel overnight at room temperature, protected from light. The following morning, two of the gels (gel 3 and 4) was exposed to 365 nm light at 20 mW/cm^2 for 10 minutes with a hatched square (100 μm) chrome photomask. Following the light treatment, gel 3 was returned to PBS (1×) and protected from light. Gels 2 and 4 were placed in a solution of Dithiothreitol (DTT, 1 mM) for 4 hours. Gels 2 and 4 were then transferred to PBS (1×) and protected from light for 30 mins. Gel 1 remained in PBS and protected from light the entire time. The resulting fluorescence of these gels were imaged using a confocal scanning microscope at 488 nm.
[2] = In situ oscillatory rheology of hydrogel formation with pretreated E∧P crosslinker; type: physicochemical
Description: Reaction products were characterized using matrix-assisted laser desorption/ionization time-of-flight mass spectrometry (MALDI-TOF). […] To further investigate, the enzyme AND photo linker (E∧P) was pretreated with different combinations of enzyme and light, added to a stoichiometrically defined amount of PEG-tetraBCN, and characterized by in situ oscillatory rheology to monitor evolution of material properties.
Oscillatory rheology was performed on an Anton Paar MCR301 rheometer equipped with a cone and plate geometry (25 mm diameter, 1° cone) at 25° C. and 25 Hz with a 1% strain. A solution of PEG-tetraBCN (3 mM, Method S22) and the E∧P crosslinker (6 mM, Method S12) in MMP buffer was reacted in situ, while G′ and G″ were measured as a function of time over the course of two hours. Peptide crosslinkers were pretreated with MMP and/or light as described in Method S24 in experimental triplicate. Hydrogels with similar stiffnesses formed when the E∧P crosslinker was untreated (G′=1660±170), exposed to just light (G′=1580±130), or exposed to just enzyme (G′=1540±110).

[3] = tested on: hS5 bone marrow-derived stromal cells; test: Hydrogel-encapsulated cell release studies; type: cell-based, human
Description: Four human bone marrow-derived stromal cell lines [hS5], including one non-fluorescent control and three each stably transfected to express a single fluorescent protein [mCherry, green fluorescent protein (GFP), or blue fluorescent protein (BFP)], were cultured at 37° C. in Roswell Park Memorial Institute medium 1640 (RPMI-1640, Corning) supplemented with 10% FBS and 1% PS.
Hydrogels were formed sandwiched between an azide-functional glass slide and a Rain-X®-treated glass slide separated by two 0.005″ thick silicone spacers (McMaster-Carr). A precursor solution containing PEG-tetraBCN (Method S22, 2 mM), the P crosslinker (Method S7, 4 mM), and hS5-GFP^+ (40×10^6 cells mL^−1) was injected between the silicone spacers and reacted for one hour. Subsequently, a precursor solution of PEG-tetraBCN (2 mM), the R∨P crosslinker (Method S10, 4 mM), and hS5-BFP^+ (40×10^6 cells mL^−1) was injected between the hS5-GFP^+ encapsulated region and a silicone spacer. […]
Following each degradative step, cells that remained encapsulated in the intact gel were imaged using fluorescent confocal microscopy. Three channels—one for each fluorescent protein—were simultaneously monitored. For visualization, fluorescence corresponding to mCherry (excitation 587 nm, emission 626-703 nm), GFP (excitation 489 nm, emission 499-570 nm), and BFP (excitation 405 nm, emission 413-494 nm) were false colored as red, green, and blue, respectively. […]
Gels were degraded and the viability of the released cells was assessed. […]
Cells released from the gels and stained with the Live/Dead® assay were imaged on a Nikon Eclipse TE2000-U microscope using filter cubes corresponding to both live (excitation 480/40 nm filter, emission 535/50 nm filter) and dead (excitation 560/20 nm filter, emission 630/60 nm filter) staining. Viability was determined for each treatment by standard image analysis. […]

[4] = all eight input combinations of reductant, MMP enzyme and light; endpoint supernatant fluorescence
[5] = Multi-logic hydrogel treatment and confocal microscopy; type: physicochemical; conditions: three-region gel
Description: Hydrogels were formed sandwiched between an azide-functional glass slide and a Rain-X®-treated glass slide separated by two 0.005″ thick silicone spacers (McMaster-Carr). A precursor solution containing PEG-tetraBCN-FAM (Method S22, 2 mM) and the P crosslinker (Method S7, 4 mM) was injected between the silicone spacers (0.005 inches) and reacted for one hour. Subsequently, a precursor solution of PEG-tetraBCN-Cyanine5 (Method S22, 2 mM) and the R∨P crosslinker (Method S10, 4 mM) was injected between the FAM functionalized region and a silicone spacer and reacted for one hour. This was repeated on the other side of the FAM functionalized region with PEG-tetraBCN-AF568 (Method S22, 2 mM) and R∧P crosslinker (Method S13, 4 mM). Hydrogels were equilibrated and stored in PBS. […]
Hydrogels were imaged using fluorescent confocal microscopy. Three channels—one for each fluorophore—were simultaneously monitored. For visualization, fluorescence corresponding to AF568 (excitation 578 nm, emission 594-627 nm), FAM (excitation 515 nm, emission 520-569 nm), and Cyanine5 (excitation 646 nm, emission 663-675 nm) were false colored as red, green, and blue, respectively.

Substance: FAM-GRCG-PL-GCGRK(CO(CH2)3N3)—NH2 [FAM-Photolabile-AND-Reducible Pendant]
Gel fluorescence (FAM release) ([1]; Gel 1, control, PBS only): no visible loss in fluorescence
Gel fluorescence (FAM release) ([1]; Gel 2, DTT only (1 mM, 4 hours)): no visible loss in fluorescence
Gel fluorescence (FAM release) ([1]; Gel 3, photomasked light only (365 nm, 20 mW/cm^2, 10 minutes)): no visible loss in fluorescence
Gel fluorescence (FAM release) ([1]; Gel 4, photomasked light and DTT): release in only the exposed areas

Final storage modulus G′ ([2]; E∧P linker pretreated with both enzyme and light, did not form a gel): 200±30 Pa
Final storage modulus G′ ([2]; E∧P linker pretreated with enzyme (MMP) only): 1580±130 Pa and 1540±110 Pa
Final storage modulus G′ ([2]; E∧P linker pretreated with light only): 1540±110 Pa and 1580±130 Pa
Final storage modulus G′ ([2]; E∧P linker untreated, reacted with PEG-tetraBCN): 1660±170 Pa
Final loss modulus G″ ([2]; all samples): ~50 Pa
Substance: HCC(CH2)2CO-RGK(CO(CH2)3N3)GPQGIWGQGK(oNB-N3)RK(CO(CH2)3N3)—NH2 [E∧P]

Response to subsequent reducing treatment ([3]; cell-laden tri-color gel, BME 0.25 mM, 37° C., 45 minutes): fully intact
Response to masked UV light ([3]; cell-laden tri-color gel, λ=365 nm, 10 minute exposure, photomask): degradation
Response to subsequent reducing treatment ([5]; BME 0.25 mM, 45 minutes, after masked light): fully intact
Response to masked UV light ([5]; λ=365 nm, 10 minute exposure, slitted photomask): degradation
Substance: N3-oNB-RGGRK(N3)—NH2 [P]
Gel degradation for viability studies ([3]; R gels BME 0.25 mM 45 minutes, P gels UV 10 minutes, E gels MMP-8 0.20 nM 60 minutes): complete hydrogel degradation
Hydrogel degradation response [4]: degrading only when the programmed cue was present
